Results taken from patent publication US12371428B2 (Exelixis, Inc., priority 2019, dated 2025).
Where two headings read alike, the source gives them in different places.

Experiments:
Type in all cases: cell-based
[1] = target: Met (phospho-Met, HGF-stimulated PC-3 prostate cancer cells) (Homo sapiens (Human), UniProt P08581); assay: Met autophosphorylation ELISA in PC-3 cells (Example F); conditions: cellular activity, read-out: c-Met IC50
Experimental: PC-3 prostate cancer cells (ATCC #CRL-1435) were seeded at 4×10^4 cells/well onto 24-well plates (Greiner #662165), in DMEM (Thermo Fisher #11995-040) containing 10% FBS (Thermo Fisher #26140-079), 1% MEM NEAA (Thermo Fisher #11140-050), 1% GlutaMax (Thermo Fisher #35050-061), and 1% Penicillin Streptomycin (Thermo Fisher #15140-122). PC-3 cells were incubated at 37° C., 5% CO2 for 24 h and then starved for 3 h in serum-free medium. Test compounds were serially diluted to produce an 8-point dose curve in fresh serum-free medium to a final concentration of 0.3% DMSO (vehicle) and added to the cells and incubated for 1 h. Cells were then stimulated with 100 ng/mL recombinant human HGF (R&D Systems #294-HG-250) for 10 min, washed with cold PBS, and immediately lysed with […] of cold 1× lysis buffer [20 mM Tris, 137 mM sodium chloride, 2 mM EDTA, 10% glycerol, 1% NP-40 alternative, 1 mM activated sodium orthovanadate, 1 mM PefaBloc SC (Sigma-Aldrich #11429868001), protease/phosphatase inhibitor tablet (Thermo Fisher #A32959)]. Lysates were clarified by centrifugation and 100 μL/well added into the PathScan phospho-Met (panTyr) Sandwich ELISA (Cell Signaling Technology #7333). Assay was performed according to manufacturer's instructions. Positive control wells (100% activity) contained HGF-stimulated, DMSO-treated cell lysates. Negative control wells (0% activity) contained HGF-stimulated, reference inhibitor-treated cell lysates. IC50 values were calculated by nonlinear regression analysis using a 4-parameter logistic curve fit in ActivityBase XE (IDBS).

[2] = target: KDR (phospho-KDR, VEGF165-stimulated HUVEC cells) (Homo sapiens (Human), UniProt P35968); assay: KDR autophosphorylation ELISA in HUVEC cells (Example G); conditions: cellular activity
Sequence of KDR (phospho-KDR, VEGF165-stimulated HUVEC cells) (P35968 20-1356): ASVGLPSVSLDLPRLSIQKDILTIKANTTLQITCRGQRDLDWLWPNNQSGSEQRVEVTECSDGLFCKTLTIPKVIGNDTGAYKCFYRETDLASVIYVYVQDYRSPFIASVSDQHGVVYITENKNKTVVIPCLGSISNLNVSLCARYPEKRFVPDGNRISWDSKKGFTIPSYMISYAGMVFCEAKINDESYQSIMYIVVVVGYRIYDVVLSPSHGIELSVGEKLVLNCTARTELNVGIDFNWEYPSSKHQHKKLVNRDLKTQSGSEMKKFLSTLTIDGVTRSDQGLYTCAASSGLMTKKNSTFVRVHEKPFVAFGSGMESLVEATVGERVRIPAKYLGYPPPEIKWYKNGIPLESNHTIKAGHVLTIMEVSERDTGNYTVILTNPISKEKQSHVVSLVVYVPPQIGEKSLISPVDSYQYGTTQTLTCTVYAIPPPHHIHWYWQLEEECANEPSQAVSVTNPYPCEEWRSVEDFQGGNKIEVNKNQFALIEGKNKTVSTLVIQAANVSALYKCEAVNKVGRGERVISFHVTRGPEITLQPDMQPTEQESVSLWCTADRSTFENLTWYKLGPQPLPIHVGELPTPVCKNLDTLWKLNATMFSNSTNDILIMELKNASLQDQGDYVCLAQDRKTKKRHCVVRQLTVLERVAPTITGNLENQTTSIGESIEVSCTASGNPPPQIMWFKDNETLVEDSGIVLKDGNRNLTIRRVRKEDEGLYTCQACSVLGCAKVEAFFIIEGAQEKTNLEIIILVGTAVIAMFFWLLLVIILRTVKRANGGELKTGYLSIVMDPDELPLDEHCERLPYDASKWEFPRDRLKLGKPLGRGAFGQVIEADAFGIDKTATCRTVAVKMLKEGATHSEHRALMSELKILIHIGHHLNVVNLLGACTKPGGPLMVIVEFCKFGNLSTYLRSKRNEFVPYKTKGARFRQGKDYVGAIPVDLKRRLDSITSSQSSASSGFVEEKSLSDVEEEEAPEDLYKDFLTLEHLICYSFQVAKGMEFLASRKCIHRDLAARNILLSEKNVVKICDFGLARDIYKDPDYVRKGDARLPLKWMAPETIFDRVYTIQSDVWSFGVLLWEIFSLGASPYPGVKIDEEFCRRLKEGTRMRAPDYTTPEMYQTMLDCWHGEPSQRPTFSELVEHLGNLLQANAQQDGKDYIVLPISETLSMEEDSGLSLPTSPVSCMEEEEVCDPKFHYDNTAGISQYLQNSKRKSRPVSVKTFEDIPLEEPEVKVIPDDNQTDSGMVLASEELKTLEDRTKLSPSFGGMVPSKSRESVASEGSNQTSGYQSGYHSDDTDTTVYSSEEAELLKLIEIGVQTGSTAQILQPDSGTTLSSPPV
Experimental: Human umbilical vein endothelial cells or HUVEC (Lonza #C2519A) were seeded at 2×10^4 cells/well onto 96-well plates (Corning #3904), in EGM-2 growth medium (Lonza #CC-3162) containing 1% Penicillin Streptomycin (Thermo Fisher #15140-122). HUVEC cells were incubated at 37° C., 5% CO2 for 24 h and then starved for 24 h in serum-free EBM-2 basal medium (Lonza #CC-3156) containing 1% Penicillin Streptomycin. Test compounds were serially diluted to produce an 8-point dose curve in fresh serum-free medium to a final concentration of 0.3% DMSO (vehicle) and added to the cells and incubated for 1 h. Cells were then stimulated with 100 ng/mL recombinant human VEGF165 (R&D Systems #293-VE-500) for 5 min, washed with cold PBS, and immediately lysed with […] of cold 1× lysis buffer [20 mM Tris, 137 mM sodium chloride, 2 mM EDTA, 10% glycerol, 1% NP-40 alternative, 1 mM activated sodium orthovanadate, 1 mM PefaBloc SC (Sigma-Aldrich #11429868001), protease/phosphatase inhibitor tablet (Thermo Fisher #A32959)]. Lysates were collected and 100 μL/well added into the human phospho-KDR DuoSet IC ELISA (R&D Systems #DYC1766-2). Assay was performed according to manufacturer's instructions and sample phospho-KDR concentrations were extrapolated using human phospho-KDR control (R&D Systems #841421) as a standard. Positive control wells (100% activity) contained VEGF165-stimulated, DMSO-treated cell lysates. Negative control wells (0% activity) contained non-stimulated cell lysates. IC50 values were calculated by nonlinear regression analysis using a 4-parameter logistic curve fit in ActivityBase XE (IDBS).

[3] = target: Mer (phospho-Mer, MERTK-transfected 293A cells) (Homo sapiens (Human), UniProt Q12866); assay: Mer autophosphorylation ELISA in transient transfected 293A cells (Example H); conditions: cellular activity
Sequence of Mer (phospho-Mer, MERTK-transfected 293A cells) (Q12866 21-999): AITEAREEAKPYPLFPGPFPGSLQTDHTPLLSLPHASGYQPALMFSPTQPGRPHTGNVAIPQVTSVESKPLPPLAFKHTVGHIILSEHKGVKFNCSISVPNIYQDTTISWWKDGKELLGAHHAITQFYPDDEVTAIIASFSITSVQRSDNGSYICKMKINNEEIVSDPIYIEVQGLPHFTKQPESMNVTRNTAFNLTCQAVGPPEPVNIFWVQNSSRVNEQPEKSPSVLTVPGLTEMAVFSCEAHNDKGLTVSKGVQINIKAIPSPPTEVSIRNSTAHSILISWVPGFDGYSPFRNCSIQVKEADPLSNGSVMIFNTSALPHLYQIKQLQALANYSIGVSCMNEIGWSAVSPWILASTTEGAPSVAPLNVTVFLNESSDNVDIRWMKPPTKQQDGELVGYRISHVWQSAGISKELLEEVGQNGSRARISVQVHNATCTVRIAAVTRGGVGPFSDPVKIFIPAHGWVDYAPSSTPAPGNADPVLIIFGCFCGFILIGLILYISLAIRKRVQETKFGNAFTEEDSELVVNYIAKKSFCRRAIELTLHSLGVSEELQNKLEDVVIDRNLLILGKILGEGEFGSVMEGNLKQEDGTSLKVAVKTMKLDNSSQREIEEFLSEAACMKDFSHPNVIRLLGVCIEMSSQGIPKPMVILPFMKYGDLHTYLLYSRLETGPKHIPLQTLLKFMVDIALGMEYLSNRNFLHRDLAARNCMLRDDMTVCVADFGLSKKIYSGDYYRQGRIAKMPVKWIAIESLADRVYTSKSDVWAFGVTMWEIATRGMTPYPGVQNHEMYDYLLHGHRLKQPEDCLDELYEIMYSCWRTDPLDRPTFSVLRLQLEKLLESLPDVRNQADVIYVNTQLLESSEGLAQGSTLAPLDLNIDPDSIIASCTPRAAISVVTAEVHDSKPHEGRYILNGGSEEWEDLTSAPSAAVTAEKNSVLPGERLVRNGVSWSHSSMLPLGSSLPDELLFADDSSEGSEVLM
Experimental: 293A cells (Thermo Fisher #R70507) were seeded at 1.5×10^6 cells/well onto 100 mm dish (Greiner #664169), in DMEM (Thermo Fisher #11995-040) containing 10% FBS (Thermo Fisher #26140-079), 1% MEM NEAA (Thermo Fisher #11140-050), 1% GlutaMax (Thermo Fisher #35050-061), and 1% Penicillin Streptomycin (Thermo Fisher #15140-122). 293A cells were incubated at 37° C., 5% CO2 for 24 h and then transfected with […] MERTK DNA (Genecopoeia #EX-Z8208-M02) using TransIT LT1 transfection reagent (Mirus-Bio #MIR2305). After 24 h incubation, the transfected 293A cells were seeded at 1×10^5 cells/well onto 96-well plates (Corning #3904) in DMEM growth medium overnight. Test compounds were serially diluted to produce an 8-point dose curve in fresh serum-free medium to a final concentration of 0.3% DMSO (vehicle) and added to the cells and incubated for 1 h. Cells were then immediately lysed with 150 μL of cold 1× lysis buffer [20 mM Tris, 137 mM sodium chloride, 2 mM EDTA, 10% glycerol, 1% NP-40 alternative, 1 mM activated sodium orthovanadate, 1 mM PefaBloc SC (Sigma-Aldrich #11429868001), protease/phosphatase inhibitor tablet (Thermo Fisher #A32959)]. Lysates were clarified by centrifugation and 50 µL/well added in to the human phospho-Mer DuoSet IC ELISA (R&D Systems #DYC2579-2). Assay was performed according to manufacturer's instructions and sample phospho-Mer concentrations were extrapolated using human phospho-Mer control (R&D Systems #841793) as a standard. Positive control wells (100% activity) contained DMSO-treated cell lysates. Negative control wells (0% activity) contained reference inhibitor-treated cell lysates. IC50 values were calculated by nonlinear regression analysis using a 4-parameter logistic curve fit in ActivityBase XE (JDBS).

[4] = Met autophosphorylation ELISA in PC-3 cells
[5] = KDR autophosphorylation ELISA in HUVEC cells
[6] = Mer autophosphorylation ELISA in transient transfected 293A cells

Sequence of Met (phospho-Met, HGF-stimulated PC-3 prostate cancer cells) (P08581 25-1390): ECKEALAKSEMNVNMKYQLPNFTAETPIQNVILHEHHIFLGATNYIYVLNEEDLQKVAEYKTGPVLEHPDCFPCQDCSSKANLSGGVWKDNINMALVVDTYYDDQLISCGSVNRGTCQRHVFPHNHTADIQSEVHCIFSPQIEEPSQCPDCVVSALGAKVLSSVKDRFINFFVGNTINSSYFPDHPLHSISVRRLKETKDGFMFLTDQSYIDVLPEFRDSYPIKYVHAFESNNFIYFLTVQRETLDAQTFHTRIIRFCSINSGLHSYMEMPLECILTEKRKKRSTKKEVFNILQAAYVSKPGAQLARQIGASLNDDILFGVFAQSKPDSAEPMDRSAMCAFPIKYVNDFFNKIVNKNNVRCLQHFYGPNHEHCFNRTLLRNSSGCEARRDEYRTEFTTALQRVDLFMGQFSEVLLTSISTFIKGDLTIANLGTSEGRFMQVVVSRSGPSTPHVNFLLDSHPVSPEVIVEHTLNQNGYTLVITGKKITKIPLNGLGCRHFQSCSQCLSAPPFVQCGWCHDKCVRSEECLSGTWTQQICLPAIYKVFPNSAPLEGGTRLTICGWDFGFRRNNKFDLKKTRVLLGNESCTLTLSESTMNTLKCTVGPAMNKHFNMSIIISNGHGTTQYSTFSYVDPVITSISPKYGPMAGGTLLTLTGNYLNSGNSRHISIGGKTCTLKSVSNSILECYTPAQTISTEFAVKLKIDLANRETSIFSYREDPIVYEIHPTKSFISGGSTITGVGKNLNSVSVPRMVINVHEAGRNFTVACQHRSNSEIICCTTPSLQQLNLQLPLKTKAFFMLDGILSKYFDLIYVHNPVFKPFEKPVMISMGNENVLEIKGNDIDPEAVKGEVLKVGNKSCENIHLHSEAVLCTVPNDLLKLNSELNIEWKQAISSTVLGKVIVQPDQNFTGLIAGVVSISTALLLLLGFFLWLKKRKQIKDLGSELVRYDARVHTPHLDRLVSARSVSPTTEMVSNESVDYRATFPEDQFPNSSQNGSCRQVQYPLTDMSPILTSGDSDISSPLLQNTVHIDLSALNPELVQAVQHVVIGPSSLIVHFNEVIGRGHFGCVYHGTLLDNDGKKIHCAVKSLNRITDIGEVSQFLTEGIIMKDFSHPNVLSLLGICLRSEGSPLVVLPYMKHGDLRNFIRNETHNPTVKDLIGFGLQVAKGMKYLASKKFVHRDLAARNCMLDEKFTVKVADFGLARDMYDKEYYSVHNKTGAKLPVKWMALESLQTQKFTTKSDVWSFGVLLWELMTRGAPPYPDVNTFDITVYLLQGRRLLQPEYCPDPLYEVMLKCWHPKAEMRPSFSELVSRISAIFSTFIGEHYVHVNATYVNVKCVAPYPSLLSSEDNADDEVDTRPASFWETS

Structure (SMILES) | IC50 [1, 4] [nM] | IC50 [2, 5] [nM] | IC50 [3, 6] [nM] | IC50 ([1]; PC-3 cells) [nM] | IC50 ([2]; HUVEC cells) [nM] | IC50 ([3]; transfected 293A cells) [nM]
CCOc1ccn(-c2ccc(F)cc2)c(=O)c1C(=O)Nc1ccc(Oc2ccnc3nc(OC)c(OCCOC)cc23)c(F)c1 [Compound 761, 4-ethoxy-N-[3-fluoro-4-[[7-methoxy-6-(2-methoxyethoxy)-1,8-naphthyridin-4-yl]oxy]phenyl]-1-(4-fluorophenyl)-2-oxopyridine-3-carboxamide] | < 100 | > 300 | < 100 |  |  | 
COc1cc2nccc(Oc3ccc(NC(=O)c4c(C)n(CC(F)F)cc(-c5ccc(F)cc5)c4=O)cc3)c2nc1OC [Compound 788, 1-(2,2-difluoroethyl)-N-[4-[(6,7-dimethoxy-1,5-naphthyridin-4-yl)oxy]phenyl]-5-(4-fluorophenyl)-2-methyl-4-oxopyridine-3-carboxamide] | < 100 | 100 to 300 | < 100 |  |  | 
COc1cc2nccc(Oc3ccc(NC(=O)c4c(C)n(CC(F)(F)F)cc(-c5ccc(F)cc5)c4=O)cc3F)c2nc1OC [Compound 727, N-[4-[(6,7-dimethoxy-1,5-naphthyridin-4-yl)oxy]-3-fluorophenyl]-5-(4-fluorophenyl)-2-methyl-4-oxo-1-(2,2,2-trifluoroethyl)pyridine-3-carboxamide] | < 100 | 100 to 300 | < 100 |  |  | 
COc1cc2nccc(Oc3ccc(NC(=O)c4c(C)n(CC(F)(F)F)cc(-c5ccc(F)cc5)c4=O)cc3)c2nc1OC [Compound 789, N-[4-[(6,7-dimethoxy-1,5-naphthyridin-4-yl)oxy]phenyl]-5-(4-fluorophenyl)-2-methyl-4-oxo-1-(2,2,2-trifluoroethyl)pyridine-3-carboxamide] | < 100 | > 300 | < 100 |  |  | 
COc1cnc2c(Oc3ccc(NC(=O)c4c(C)n(C)c(C)c(-c5ccc(F)c(F)c5)c4=O)cc3F)ccnc2c1 [Compound 820, 5-(3,4-difluorophenyl)-N-[3-fluoro-4-[(7-methoxy-1,5-naphthyridin-4-yl)oxy]phenyl]-1,2,6-trimethyl-4-oxopyridine-3-carboxamide] |  |  |  | < 100 | > 300 | < 100
COc1cc2nccc(Oc3ccc(NC(=O)c4nn(CC(F)F)c(C)c(-c5ccc(F)cc5)c4=O)cc3)c2nc1OC [Compound 776, 1-(2,2-difluoroethyl)-N-[4-[(6,7-dimethoxy-1,5-naphthyridin-4-yl)oxy]phenyl]-5-(4-fluorophenyl)-6-methyl-4-oxopyridazine-3-carboxamide] | < 100 | > 300 | < 100 |  |  | 
COc1cc2nccc(Oc3ccc(NC(=O)c4c(C)n(CC(F)F)cc(-c5ccc(F)cc5C)c4=O)cc3F)c2nc1OC [Compound 786, 1-(2,2-difluoroethyl)-N-[4-[(6,7-dimethoxy-1,5-naphthyridin-4-yl)oxy]-3-fluorophenyl]-5-(4-fluoro-2-methylphenyl)-2-methyl-4-oxopyridine-3-carboxamide] | < 100 | < 100 | < 100 |  |  | 
COc1cc2nccc(Oc3ccc(NC(=O)c4c(C)nnc(-c5ccc(F)cc5C)c4OC)cc3F)c2nc1OC [Compound 773, N-[4-[(6,7-dimethoxy-1,5-naphthyridin-4-yl)oxy]-3-fluorophenyl]-6-(4-fluoro-2-methylphenyl)-5-methoxy-3-methylpyridazine-4-carboxamide] | < 100 | < 100 | < 100 |  |  | 
COc1cc2nccc(Oc3cc(F)c(NC(=O)c4c(C)nc(C)c(-c5ccc(F)cc5F)c4O)cc3F)c2nc1OC [Compound 777, 5-(2,4-difluorophenyl)-N-[4-[(6,7-dimethoxy-1,5-naphthyridin-4-yl)oxy]-2,5-difluorophenyl]-4-hydroxy-2,6-dimethylpyridine-3-carboxamide] | < 100 | < 100 | < 100 |  |  | 
COc1cnc2c(Oc3ccc(NC(=O)c4cnc(C)c(-c5ccc(F)cc5OC)c4O)cc3F)ccnc2c1 [Compound 707, N-[3-fluoro-4-[(7-methoxy-1,5-naphthyridin-4-yl)oxy]phenyl]-5-(4-fluoro-2-methoxyphenyl)-4-hydroxy-6-methylpyridine-3-carboxamide] | < 100 | < 100 | < 100 |  |  | 
CCOCc1nc(C)c(-c2ccc(F)cc2C)c(O)c1C(=O)Nc1ccc(Oc2ccnc3cc(OC)cnc23)cc1 [Compound 781, 2-(ethoxymethyl)-5-(4-fluoro-2-methylphenyl)-4-hydroxy-N-[4-[(7-methoxy-1,5-naphthyridin-4-yl)oxy]phenyl]-6-methylpyridine-3-carboxamide] | < 100 | > 300 | < 100 |  |  | 
COc1ccc(-c2c(C)nc(C)c(C(=O)Nc3ccc(Oc4ccnc5cc(OC)c(OC)nc45)c(F)c3)c2O)cc1C [Compound 712, N-[4-[(6,7-dimethoxy-1,5-naphthyridin-4-yl)oxy]-3-fluorophenyl]-4-hydroxy-5-(4-methoxy-3-methylphenyl)-2,6-dimethylpyridine-3-carboxamide] | < 100 | < 100 | < 100 |  |  | 
CCOCc1nc(C)c(-c2ccc(F)cc2C)c(O)c1C(=O)Nc1ccc(Oc2ccnc3cc(OC)c(OC)nc23)cc1 [Compound 780, N-[4-[(6,7-dimethoxy-1,5-naphthyridin-4-yl)oxy]phenyl]-2-(ethoxymethyl)-5-(4-fluoro-2-methylphenyl)-4-hydroxy-6-methylpyridine-3-carboxamide] | < 100 | 100 to 300 | < 100 |  |  | 
COc1cnc2c(Oc3ccc(NC(=O)c4cnc(C)c(-c5ccc(F)c(F)c5)c4O)cc3F)ccnc2c1 [Compound 706, 5-(3,4-difluorophenyl)-N-[3-fluoro-4-[(7-methoxy-1,5-naphthyridin-4-yl)oxy]phenyl]-4-hydroxy-6-methylpyridine-3-carboxamide] | < 100 | < 100 | < 100 |  |  | 
COc1cc2nccc(Oc3ccc(NC(=O)c4c(C)c(C)c(C)n(-c5ccccc5)c4=O)cc3F)c2nc1OC [Compound 755, N-[4-[(6,7-dimethoxy-1,5-naphthyridin-4-yl)oxy]-3-fluorophenyl]-4,5,6-trimethyl-2-oxo-1-phenylpyridine-3-carboxamide] | < 100 | 100 to 300 | < 100 |  |  | 
